Assay results from patent US5412098A, “Quinolone derivative or salt thereof and antibacterial containing the same” (Wakunaga Seiyaku Kabushiki Kaisha, priority 1991, dated 1995).
In brackets after ≈: the same amount, converted by molar mass.

What was measured:
[1] = test system: E. Coli NIH JC-2 (IFO 12734); test: Minimum inhibitory concentration, standard method of Japan Society of Chemotherapy, E. Coli NIH JC-2; assay type: cell-based; settings: Escherichia coli, IFO12734
Protocol: (§1) Antibacterial activity, absorption and excretion of the compounds indicated in Examples were tested as follows.
(§2) The minimum inhibitory concentration (MIC: microgram/ml) is measured by the standard method of Japan Society of Chemotherapy, (Chemotherapy, Volume 29, No.1, pp.76-79, 1981). The results are shown in Table 52 in which compound numbers are the same as those indicated in Examples.

[2] = test system: S. aureus 209P (IFO 12732); test: Minimum inhibitory concentration, standard method of Japan Society of Chemotherapy, S. aureus 209P; assay type: cell-based; settings: Staphylococcus aureus
Protocol: as §1, §2

P. aeruginosa (IFO 3445) = test: Minimum inhibitory concentration, standard method of Japan Society of Chemotherapy, P. aeruginosa; assay type: cell-based; settings: Pseudomonas aeruginosa, IFO3445
Protocol: as §1, §2

[3] = Recovery in urine after oral administration (disk method, Bacillus subtilis ATCC 6633); assay type: in vivo, male JCL-SD rats; settings: rat, 20 mg/kg, rats, 20 mg/10 ml/kg in 0.5% methylcellulose, fasted overnight, read-out: Excretion Rate, In Urine
Protocol: (§3) The absorption and excretion after oral administration of the compounds of the present invention were tested by measuring the recovery in urine and bile as follows.
To a group of three male JCL-SD rats (6 weeks old) fasted overnight, a subject compound was orally administered as prepared to be 20 mg/10 ml/kg with 0.5% of methylcellulose solution. The sampling was carried out by collecting urine in 0 to 6 hours and 6 to 24 hours. The concentration of the subject compound in the urine was examined by a disk method by using Bacillus subtilis ATCC 6633 as a testing bacillus to obtain an excretion rate in urine for 24 hours.

[4] = Recovery in bile after oral administration (disk method, Bacillus subtilis ATCC 6633); assay type: in vivo; settings: rat, 20 mg/kg, rats, prepared as in urine test (20 mg/10 ml/kg), read-out: Excretion Rate, In Bile
Protocol: as §3
A subject compound was prepared in the same manner as the recovery test in urine and was orally administered to the rats. The bile was collected by using a polyethylene tube inserted into the choledochus over 24 hours. The concentration of the subject compound in the bile sample was examined in the same manner as the recovery in urine to obtain an excretion rate in bile for 24 hours.

Compound | MIC [1] | MIC [2] | MIC (P. aeruginosa (IFO 3445)) | dose excreted at 24 h [3] | dose excreted at 24 h [4]
C[C@@H]1CN(c2nc3c(cc2F)c(=O)c(C(=O)O)cn3-c2cnsn2)C[C@@H]1N (single isomer, unassigned) [Compound 19] | < 0.013 µg/mL | 0.1 µg/mL (≈ 0.256 µM) | 0.39 µg/mL (≈ 0.999 µM) | 80.6% | 4.4%
Cl.N[C@H]1CCN(c2nc3c(cc2F)c(=O)c(C(=O)O)cn3-c2cnsn2)C1 [Compound 18, 7-(3-(S)-Aminopyrrolidin-1-yl)-6-fluoro-1-(1,2,5-thiadiazol-3-yl)-1,4-dihydro-4-oxo-1,8-naphthyridine-3-carboxylic acid hydrochloride] | < 0.013 µg/mL | 0.2 µg/mL | 0.1 µg/mL | 20% | 2%
N[C@H]1CCN(c2nc3c(cc2F)c(=O)c(C(=O)O)cn3-c2csnn2)C1 [Compound 58] | 0.05 µg/mL (≈ 0.133 µM) | 1.56 µg/mL (≈ 4.14 µM) | 0.39 µg/mL (≈ 1.04 µM) |  | 
Cc1nonc1-n1cc(C(=O)O)c(=O)c2cc(F)c(N3CC[C@H](N)C3)nc21 [Compound 81] | 0.05 µg/mL (≈ 0.134 µM) | 0.1 µg/mL (≈ 0.267 µM) | 0.2 µg/mL (≈ 0.534 µM) |  | 
N[C@H]1CCN(c2c(F)cc3c(=O)c(C(=O)O)cn(Cc4cnsn4)c3c2F)C1 [Compound 126] | 3.13 µg/mL (≈ 7.68 µM) | 0.39 µg/mL (≈ 0.957 µM) | 3.13 µg/mL (≈ 7.68 µM) |  | 
Cc1c(F)c(N2CC[C@H](N)C2)cc2c1c(=O)c(C(=O)O)cn2-c1cnsn1 [Compound 162] | 0.013 µg/mL (≈ 0.0334 µM) | 0.1 µg/mL (≈ 0.257 µM) | 0.2 µg/mL (≈ 0.514 µM) |  | 
Cc1nsnc1-n1cc(C(=O)O)c(=O)c2cc(F)c(N3CC[C@H](N)C3)nc21.Cl [Compound 187, 7-(3-(S)-Aminopyrrolidin-1-yl)-6-fluoro-1-(4-methyl-1,2,5-thiadiazol-3-yl)-1,4-dihydro-4-oxo-1,8-naphthyridine-3-carboxylic acid hydrochloride] | 0.05 µg/mL | 0.2 µg/mL | 0.39 µg/mL |  | 
